Literature values as cited in the PKSmart pharmacokinetics tables (Seal et al. 2025).
Where a SMILES comes first, the peptide text is derived from it. [ ]: non-standard residue; d: D form. The star is where a group is joined. ξ: configuration not given here. ξNMe2Val = CC(C)C(C(=O)*)N(C)C; NMeV = CN[CH](C(=O)O)C(C)C; NHtBu = CC(C)(C)N*

Assay: Lombardo, Berellini, Obach 2018, Drug Metab Dispos 46:1466, doi 10.1124/dmd.118.082966
Settings: human; for MRT / clearance / half-life / Vd: in vivo, iv; for fraction unbound: plasma

Row | SMILES | MRT [h] | clearance [mL/min/kg] | half-life [h] | Vd [L/kg] | fraction unbound
1 | O=c1[nH]cnc2c1ncn2[C@H]1CC[C@@H](CO)O1 | 1.2 | 11 | 1.4 |  | 
2 | Cn1c(NCCN(CCO)CCCc2ccc([N+](=O)[O-])cc2)cc(=O)n(C)c1=O | 1.56 | 20.9 | 1.52 | 1.96 | 0.09
3 | COc1ccc(C2(C#N)CCC(C(=O)O)CC2)cc1OC1CCCC1 (stereo not given) | 8.5 | 0.5 | 7.9 | 0.23 | 
4 | CO/N=C1\CN(c2nc3c(cc2F)c(=O)c(C(=O)O)cn3C2CC2)CC1CN (stereo not given) | 8.1 | 7.2 | 8.3 | 3.52 | 0.3
5 | COc1ccc2[nH]cc(CCNC(C)=O)c2c1 | 1.1 | 16.5 | 1.1 | 1.1 | 0.39
6 | C[C@H]1O[C@@H](O[C@H]2[C@@H](O)C[C@H](O[C@H]3[C@@H](O)C[C@H](O[C@H]4CC[C@@]5(C)[C@H](CC[C@@H]6[C@@H]5CC[C@]5(C)[C@@H](C7=CC(=O)OC7)CC[C@]65O)C4)O[C@@H]3C)O[C@@H]2C)C[C@H](O)[C@@H]1O | 170 | 0.043 |  | 0.44 | 0.066
7 | CC1=CC[C@@H](C(C)(C)O)C[C@@H]1O | 3.1 | 2.7 | 1.9 | 0.43 | 
8 | Cc1onc(-c2c(Cl)cccc2Cl)c1C(=O)NC1C(=O)N2C(C(=O)O)C(C)(C)S[C@H]12 (stereo not given in full) | 0.92 | 2 | 0.88 | 0.11 | 
9 | CC1(C)S[C@@H]2C(NC(=O)C(NC(=O)N3CCN(/N=C/c4ccco4)C3=O)c3ccc(O)cc3)C(=O)N2C1C(=O)O (stereo not given in full) | 0.92 | 3.61 | 1.3 | 0.2 | 
10 | COC(=O)N(C)c1c(N)nc(-c2nn(Cc3ccccc3F)c3ncccc23)nc1N | 10 | 0.74 | 9.1 | 0.44 | 
11 | CC(=O)OC1=C2C(C)[C@@H](OC(=O)C(O)C(CC(C)C)NC(=O)OC(C)(C)C)[C@@H]3OC(=O)O[C@]3([C@@H](OC(=O)c3ccccc3)[C@@H]3[C@]4(OC(C)=O)CO[C@@H]4C[C@H](O)[C@@]3(C)C1=O)C2(C)C (stereo not given in full) | 28.4 | 8.12 | 30.1 | 13.8 | 
12 | CC(=O)NC(CO)C(=O)NC(CC(=O)O)C(=O)NC(CCCCN)C(=O)N1CCCC1C(=O)O (stereo not given) (Ac-SDKP-OH; configuration not given here) |  | 18.7 | 0.08 |  | 
13 | Cc1c(OCC(F)(F)F)ccnc1C[S+](O)c1nc2ccccc2[n-]1 (stereo not given) | 1.1 | 4.4 | 1 | 0.28 | 
14 | Nc1ccn([C@@H]2C=C(CO)[C@@H](O)[C@H]2O)c(=O)n1 |  | 3.61 |  |  | 
15 | COc1c(-c2ccc3cc(NS(C)(=O)=O)ccc3c2)cc(-n2ccc(=O)[nH]c2=O)cc1C(C)(C)C |  |  | 5.7 | 2.13 | 0.005
16 | COc1cc(F)ccc1Cn1ccc2c3c(ncc21)C(=O)N(O)CC3 | 3.95 | 24 | 3.8 | 5.7 | 0.08
17 | O=C1CN=C(c2ccccn2)c2cc(Br)ccc2N1 | 28 | 0.51 | 21 | 0.85 | 
18 | COc1ccc2[n-]c([S+](O)Cc3ncc(C)c(OC)c3C)nc2c1 (stereo not given) | 0.48 | 8.4 | 0.58 | 0.24 | 

Row | SMILES | MRT [h] | clearance [mL/min/kg] | half-life [h] | Vd [L/kg] | fraction unbound
19 | CN1CC(C(=O)N[C@]2(C)O[C@]3(O)[C@@H]4CCCN4C(=O)C(Cc4ccccc4)N3C2=O)C[C@@H]2c3cccc4[nH]cc(c34)C[C@H]21 (stereo not given in full) | 0.36 | 15.1 | 0.55 | 0.33 | 
20 | CN(C)N=Nc1ccc(C(=O)O)cc1 | 3 | 1.3 | 2.5 | 0.25 | 
21 | CC(C)C(NC(=O)C(C(C)C)N(C)C)C(=O)N(C)C(C(=O)N1CCCC1C(=O)N1CCCC1C(=O)NC(C)(C)C)C(C)C (stereo not given) (ξNMe2Val-V[NMeV]PP-NHtBu; configuration not given here) | 0.58 | 9.6 | 0.57 | 0.33 | 
22 | CS(=O)(=O)c1ccc(C(=O)Nc2ccc(Cl)c(-c3ccccn3)c2)c(Cl)c1 | 341 | 0.01 | 245 |  | 
23 | O=C1CCc2ccc(OCCCCN3CCN(c4cccc(Cl)c4Cl)CC3)cc2N1 | 98 | 0.83 | 75 | 4.9 | 
24 | CCCc1cc(=O)[nH]c(=S)[nH]1 | 1.8 | 3.1 | 1.3 | 0.34 | 0.18
25 | CCOC(=O)C1=C[C@]2(CC)CCCN3CCc4c(n1c1ccccc41)[C@@H]32 | 5.68 | 6.1 | 4.83 | 2.08 | 0.02
26 | CC[C@@]1(O)C(=O)OCc2c1cc1n(c2=O)Cc2c-1nc1cc(F)c(C)c3c1c2[C@@H](N)CC3 | 7.6 | 0.96 | 6.7 | 0.44 | 
27 | CCC#CC[C@H](C)[C@H](O)C#C[C@H]1[C@H]2CC(=CCOCCCC(=O)O)C[C@H]2C[C@H]1O | 0.59 | 66.2 | 0.41 | 2.4 | 
28 | O=C(O)CO | 2.75 | 4.05 | 2.1 | 0.67 | 0.84
29 | N=C(N)c1ccc(C(=O)NC(Cc2ccc(O)cc2)C(=O)N2CCC(OCC(=O)O)CC2)cc1 (stereo not given) | 2.5 |  | 2.1 | 0.29 | 0.94
30 | C=CCN1CCC[C@H]1CNC(=O)c1cc(S(=O)(=O)NC)c(N)cc1OC | 7 | 5.47 | 4.8 | 2.3 | 
31 | CC(=O)O[C@@]12CO[C@@H]1C[C@H](O)[C@@]1(C)C(=O)C(=O)C3C(C)[C@@H](OC(=O)C(O)C(NC(=O)OC(C)(C)C)c4ccccc4)C[C@@](O)([C@@H](OC(=O)c4ccccc4)[C@H]21)C3(C)C (stereo not given in full) | 2.5 | 14 | 11 | 2.1 | 0.04
32 | O=C1c2c(c3c4ccc(O)cc4n([C@@H]4O[C@H](CO)[C@@H](O)[C@H](O)[C@H]4O)c3c3[nH]c4cc(O)ccc4c23)C(=O)N1NC(CO)CO | 0.95 | 25.3 | 4.01 | 1.45 | 
33 | Nc1cc(N2CCCCC2)nc(N)[n+]1[O-] | 1.3 | 11.5 | 1.5 | 0.9 | 
34 | O=C1NCC2(CCN(CCc3ccccc3)CC2)O1 | 19 | 2.6 | 14 | 3 | 
35 | OCc1ncc2n1-c1ccc(Cl)cc1C(c1ccccc1F)=NC2 | 1.3 | 9.71 | 1.1 | 0.77 | 0.1
36 | CN(CCCCCCN(C)C(=O)Oc1ccc[n+](C)c1)C(=O)Oc1ccc[n+](C)c1 | 82.4 | 0.2 | 59.8 | 1 | 
